In US6479525B2, “Aspartate derivative of amlodipine” (Synthon BV, priority 2000, dated 2002):

System: isolated heart tissue
Experiment: reduction of calcium-induced contraction of isolated heart tissue in vitro (calcium channel blocking activity)
Details: degree of reduction of contraction of an isolated heart tissue induced by an addition of calcium ions in vitro

With `CCOC(=O)C1=C(COCCN[C@@H](CC(=O)O)C(=O)O)NC(C)=C(C(=O)OC)C1c1ccccc1Cl` (stereo partly shown) [Compound of formula (1), N-(2-{[4-(2-chlorophenyl)-3-(ethoxycarbonyl)-5-(methoxycarbonyl)-6-methyl-1,4-dihydro-2-pyridinyl]methoxy}ethyl)aspartic acid] the “calcium channel blocking activity (ability to inhibit the movement of calcium into a cell)” value was “has been shown”.
